In experiment [1] the target is T1, recombinant human PAI-1 (Homo sapiens, UniProt P05121). As to the kind of experiment: Test Example 4: Human PAI-1 Inhibitory Activity (amount of PAI-1 bound to plate-coated one-chain tPA, ELISA). Format: biochemical. More on the design: purchased Molecular Innovations, Inc. The settings on record: human PAI-1 bound to tPA, read-out: Inhibition Rate of PAI-1 Activity (%); for inhibition at 0.3 µM: Compound Concentration 0.3µM; for inhibition at 1 µM: Compound Concentration 1µM; for inhibition at 3 µM: Compound Concentration 3µM. Here is the method:
100 µl of tPA solution, where one-chain recombinant tPA (hereinafter reffered to as tPA; American diagnostica, inc.) had been diluted with Buffer A to acheive a concentration of 10 µg/ml, was added to each well of a 96-well plate (Nunc Maxisorp), and the plate was incubated for one night at 4 °C to be coated with tPA. Then, after suction of tPA solution from the 96-well plate, the plate was rinsed successively with Buffer A and Buffer B. To Buffer B, solutions of the compound according to the present invention dissolved with DMSO (final DMSO concentration: 0.2 %) and recombinant human PAI-1 (Molecular Innovations, Inc.) were added. The mixtures were blended so that the final concentrations would be 0.1 to 3.0 µM and 50 ng/ml respectively, and were incubated for 15 minutes on ice. These mixed solutions were added to the rinsed 96-well plate at 100 µl/well, and incubated for 60 minutes at room temperature. To prepare a calibration curve, PAI-1 solutions without the compound according to the present invention (solutions where the final concentrations being 100, 50, 25, 12.5, 6.25, 3.13, or 1.56 ng/ml PAI-1) were added at 100 µl/well, and the plate was incubated for 60 minutes at room temperature, as standard.
After incubation, the reaction mixture was removed by suction, and each well was rinsed with Wash Buffer. Next, anti-human PAI-1 monoclonal antibody (PROGEN Inc.) diluted with Buffer C to be 3.0 µg/ml was added to the 96-well plate at 100 µl/well, and the plate was incubated for 1 hour at room temperature. After rinsing each well with Wash Buffer, alkaline phosphatase-labeled goat anti-mouse IgG (H+L) (Jackson ImmunoResearch, Inc.) diluted with Buffer D to be 0.12 µg/ml was added at 100 µl/well, and the plate was incubated for 1 hour at room temperature. After rinsing each well with Wash Buffer, 1.0 mg/ml p-Nitrophenyl Phosphate (SIGMA) was added to the 96-well plate at 100 µl/well to start the reaction. After 30 to 60 minutes, 25 µl of 0.5 N NaOH was added to stop the reaction, and the absorbance was measured at 405 nm using a multiplate reader (GENios; TECAN G.M.B.H.).
Based on the calibration curve prepared from the standard wells, amounts of PAI-1 bound to tPA in the wells that had been treated with the compound according to the present invention were calculated, and the PAI-1 inhibition rates by the compounds according to the present invention were obtained by the following equation. [API-1InhibitionRate(%)] = [1-(amountofPAI-1boundtotPaonthewellbytreatmentwiththecompondaccordingtothepresentinvention)/(amountofPAI-1boundtotPAonthewellbytreatmentwithPAI-1solutionnotincledingthecompondaccordingtotheinvention(solution having the final concentration of 50 nb/ml PAI-1)] × 100 [formula] • <Composition of Buffer A> 0.1 M Tris-HCl, 150 mM NaCl, pH 7.7 • <Composition of Buffer B> 50 mM sodium phosphate, 0.1 M NaCl, 1 mM EDTA, pH 6.6 • <Composition of Buffer C> 50 mM sodium phosphate, 100 mM NaCl, pH 7.4 • <Composition of Buffer D> 0.01 M Tris-HCl, 0.25 M NaCl, pH 8.0 • <Compositon of Wash Buffer> 0.05 % Tween 20, 0.1 % BSA in Buffer A • <Composition of p-Nitrophenyl Phosphate solution> 1 M Diethanolamine 0.5 mM MgCl2, p-Nitrophenyl phosphate, pH 9.8
(In general: ELISA stands for enzyme-linked immunosorbent assay.)

In experiment [2] the target is T2, recombinant rat PAI-1 (Rattus norvegicus, UniProt P20961).
T2 sequence (P20961 24-402): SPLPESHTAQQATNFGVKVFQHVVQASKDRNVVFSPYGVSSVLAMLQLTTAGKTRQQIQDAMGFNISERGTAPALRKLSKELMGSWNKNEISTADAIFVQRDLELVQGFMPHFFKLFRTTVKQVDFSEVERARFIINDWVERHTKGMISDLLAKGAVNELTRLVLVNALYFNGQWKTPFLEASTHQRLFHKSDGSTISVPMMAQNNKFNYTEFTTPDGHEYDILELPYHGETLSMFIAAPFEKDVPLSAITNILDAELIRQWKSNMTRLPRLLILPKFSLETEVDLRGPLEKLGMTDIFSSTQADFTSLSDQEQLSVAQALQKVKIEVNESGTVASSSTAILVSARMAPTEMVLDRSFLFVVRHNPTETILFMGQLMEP
As to the kind of experiment: biochemical. The conditions noted are these: read-out: Inhibition Rate of PAI-1 Activity (%).

Experiment [3] has as its target T1, recombinant human PAI-1. As to the kind of experiment: biochemical. The settings on record: for inhibition at 25 µM: read-out: Inhibition Rate of PAI-1 Activity (%), Compound Concentration 25µM.
Protocol: To this solution, 6 µl of 80 nM recombinant human PAI-1 (Molecular Innovations, Inc.) solution prepared with Tris buffer was added, and the plate was incubated for 5 minutes at room temperature. Furthermore, 30 µl of 800 IU/ml two-chain tPA (Activity Standard; American diagnostica, inc.) prepared with Tris buffer was added, and the mixed solution was incubated for 15 minutes at room temperature. Then, 30 µl of 400 µM fluorogenic substrate (Pyr-Gly-Arg-MCA; Peptide Institute, Inc.) for tPA prepared with Tris buffer was added and reacted for 30 minutes at room temperature.
50 mM Tris, 150 mM NaCl, 10 µg/ml BSA, 0.01 % Tween80 (SIGMA-ALDRICH Corporation)
The target in experiment [4] is T1, recombinant human PAI-1. Put plainly: Test Example 2: Human PAI-1 Inhibitory Activity (pH 7.4 HEPES buffer, 10 minutes incubation with two-chain tPA). The class given is biochemical. More on the design: purchased Molecular Innovations, Inc. The settings on record: read-out: Inhibition Rate of PAI-1 Activity (%). On the procedure:
0.1 M HEPES, 0.1 M NaCl. 1 mM EDTA. 0.1 % Polyethylene glycol 8,000 (Hampton Research Corporation),
2 mM Dimethyldecylphoshine oxide [Apo-10] (Fluka Corporation)

[5] abbreviates: read-out: Inhibition Rate of PAI-1 Activity (%), Compound Concentration 5µM.
Where [6] appears, read: read-out: Inhibition Rate of PAI-1 Activity (%), Compound Concentration 10µM.
The mark [7] stands for this setting: read-out: Inhibition Rate of PAI-1 Activity (%).

Like-named read-outs stand apart in the source and are kept apart here. Bounds are passed on as bounds.

T1 sequence (P05121 24-402): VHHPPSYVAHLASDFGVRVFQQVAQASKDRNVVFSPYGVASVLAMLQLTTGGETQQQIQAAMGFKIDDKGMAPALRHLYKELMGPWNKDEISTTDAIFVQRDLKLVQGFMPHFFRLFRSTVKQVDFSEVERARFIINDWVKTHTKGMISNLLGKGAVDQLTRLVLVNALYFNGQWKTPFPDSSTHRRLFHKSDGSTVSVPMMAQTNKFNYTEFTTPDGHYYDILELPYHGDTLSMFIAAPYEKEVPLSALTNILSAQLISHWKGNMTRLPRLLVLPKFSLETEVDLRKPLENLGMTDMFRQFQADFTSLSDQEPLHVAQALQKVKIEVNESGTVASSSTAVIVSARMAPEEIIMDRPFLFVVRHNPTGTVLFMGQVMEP

`CCN(CC)c1ccc(N(Cc2ccc(C(C)(C)C)cc2)C(=O)C(=O)O)c(-c2ccc(OC(F)(F)F)cc2)c1` [Compound 208]: in experiment [1], the inhibition at 0.3 µM was determined as 0%, the inhibition at 1 µM was 6% and the inhibition at 3 µM was 36%. In experiment [2], the inhibition at 0.3 µM turned out to be 0%, the inhibition at 1 µM was found to be 12%, the inhibition at 3 µM turned out to be 82% and the inhibition at 10 µM was 81%. The inhibition at 5 µM in experiment [3] (setting [5]) was 89%. For the same compound, the inhibition at 10 µM in experiment [3] (setting [6]) is 98%. Moreover, in experiment [4], the inhibition at 0.1 µM was 10%, the inhibition at 0.3 µM worked out at 1%, the inhibition at 1 µM came out at 36% and the inhibition at 3 µM came to 99%.

Turning to `O=C(O)CCc1cc(-c2ccc(OC(F)(F)F)cc2)ccc1OCCCCc1ccccc1` [Compound 102], in experiment [1], the inhibition at 0.3 µM stood at 0%, the inhibition at 1 µM is 0% and the inhibition at 3 µM is 83%. For the same compound, in experiment [2], the inhibition at 0.3 µM was 0%, the inhibition at 1 µM was 12%, the inhibition at 3 µM is 55% and the inhibition at 10 µM was 93%. Moreover, the inhibition at 5 µM in experiment [3] (setting [5]) was 43%. Besides, in experiment [3] (setting [6]), the inhibition at 10 µM was determined as 74%. Further, the inhibition at 25 µM in experiment [3] is 97%. Besides, in experiment [4], the inhibition at 0.1 µM worked out at 0%, the inhibition at 0.3 µM was determined as 7%, the inhibition at 1 µM amounted to 28% and the inhibition at 3 µM was found to be 94%.

`CCCCC(c1ccc(C(C)(C)C)cc1)N(C(=O)C(=O)O)c1ccc(-c2ccc(OC(F)(F)F)cc2)cc1` (stereo not drawn) [Compound 221]: in experiment [1], the inhibition at 0.3 µM worked out at 0%, the inhibition at 1 µM is 13% and the inhibition at 3 µM is 38%. Also, in experiment [2], the inhibition at 0.3 µM was determined as 10%, the inhibition at 1 µM is 37% and the inhibition at 3 µM was 89%. Moreover, in experiment [3] (setting [5]), the inhibition at 5 µM is 80%. For the same compound, the inhibition at 10 µM in experiment [3] (setting [6]) was determined as 86%. In experiment [4], the inhibition at 0.1 µM is 0%, the inhibition at 0.3 µM worked out at 6%, the inhibition at 1 µM was 55% and the inhibition at 3 µM was greater than 99%.

Take `CC(C)(Oc1cc(-c2ccc(OC(F)(F)F)cc2)ccc1OCc1ccc(C(C)(C)C)cc1)C(=O)O` [Compound 106]: in experiment [1], the inhibition at 0.3 µM is 0%, the inhibition at 1 µM worked out at 7% and the inhibition at 3 µM is 17%. For the same compound, in experiment [2], the inhibition at 0.3 µM came to 0%, the inhibition at 1 µM was 16%, the inhibition at 3 µM was 85% and the inhibition at 10 µM was greater than 99%. In experiment [3] (setting [5]), the inhibition at 5 µM was found to be 50%. For the same compound, in experiment [3] (setting [6]), the inhibition at 10 µM was determined as 85%. In addition, the inhibition at 25 µM in experiment [3] worked out at 93%. For the same compound, in experiment [4], the inhibition at 0.1 µM was determined as 0%, the inhibition at 0.3 µM was determined as 8%, the inhibition at 1 µM came out at 39% and the inhibition at 3 µM was 97%.

Consider `CCC(CC)Oc1ccc(N(Cc2ccc(C(C)(C)C)cc2)C(=O)C(=O)O)cc1-c1ccc(OC(F)(F)F)cc1` [Compound 197], for which, in experiment [1], the inhibition at 0.3 µM turned out to be 21%, the inhibition at 1 µM was 34% and the inhibition at 3 µM was found to be 73%. In experiment [2], the inhibition at 0.3 µM turned out to be 0%, the inhibition at 1 µM worked out at 37%, the inhibition at 3 µM came out at 84% and the inhibition at 10 µM is 75%. The inhibition at 5 µM in experiment [3] (setting [5]) was 90%. The inhibition at 10 µM in experiment [3] (setting [6]) turned out to be 92%. The inhibition at 25 µM in experiment [3] amounted to 73%. Besides, in experiment [4], the inhibition at 0.1 µM is 6%, the inhibition at 0.3 µM was determined as 1%, the inhibition at 1 µM was 38% and the inhibition at 3 µM is greater than 99%.

Turning to `COc1cc(OC)c(N(Cc2ccc(C(C)(C)C)cc2)C(=O)C(=O)O)cc1-c1ccc(OC(F)(F)F)cc1` [Compound 190], in experiment [1], the inhibition at 0.3 µM amounted to 0%, the inhibition at 1 µM amounted to 9% and the inhibition at 3 µM came to 55%. Further, in experiment [2], the inhibition at 0.3 µM stood at 0%, the inhibition at 1 µM worked out at 11%, the inhibition at 3 µM was 66% and the inhibition at 10 µM is greater than 99%. The inhibition at 5 µM in experiment [3] (setting [5]) was 65%. The inhibition at 10 µM in experiment [3] (setting [6]) is 91%. Besides, the inhibition at 25 µM in experiment [3] was determined as 91%. In experiment [4], the inhibition at 0.1 µM is 2%, the inhibition at 0.3 µM is 3%, the inhibition at 1 µM came out at 27% and the inhibition at 3 µM was determined as 95%.

In the case of `CC(C)(C)c1ccc(CN(C(=O)C(=O)O)c2cc(-c3ccc(OC(F)(F)F)cc3)cc(C(F)(F)F)c2)cc1` [Compound 139], in experiment [1], the inhibition at 0.3 µM turned out to be 6%, the inhibition at 1 µM was determined as 10% and the inhibition at 3 µM worked out at 32%. Also, in experiment [2], the inhibition at 0.3 µM was 0%, the inhibition at 1 µM is 22%, the inhibition at 3 µM was determined as 85% and the inhibition at 10 µM came out at 88%. In experiment [3] (setting [5]), the inhibition at 5 µM amounted to 25%. Besides, the inhibition at 10 µM in experiment [3] (setting [6]) was found to be 59%. Moreover, the inhibition at 25 µM in experiment [3] was 66%. For the same compound, in experiment [4], the inhibition at 0.1 µM was determined as 0%, the inhibition at 0.3 µM worked out at 3%, the inhibition at 1 µM amounted to 30% and the inhibition at 3 µM was determined as 97%.

For the compound `CC(C)Oc1ccc(N(Cc2ccc(C(C)(C)C)cc2)C(=O)C(=O)O)cc1-c1ccc(OC(F)(F)F)cc1` [Compound 211], in experiment [2], the inhibition at 0.3 µM amounted to 4%, the inhibition at 1 µM turned out to be 17%, the inhibition at 3 µM stood at 78% and the inhibition at 10 µM is 87%. For the same compound, in experiment [3] (setting [7]), the inhibition at 5 µM stood at 87% and the inhibition at 10 µM worked out at 96%. For the same compound, in experiment [4], the inhibition at 0.1 µM was found to be 9%, the inhibition at 0.3 µM is 16%, the inhibition at 1 µM amounted to 43% and the inhibition at 3 µM stood at 96%.
